Experimental data from PMC5554220, “A Novel Aldosterone Antagonist Limits Renal Injury in 5/6 Nephrectomy” (Scientific Reports, 2017).

Experiments:
[1] = tested on: rats with 5/6 renal ablation (Nx); assay: Protocol 1 (early treatment), 5/6 renal ablation (Nx); assay type: in vivo, male Munich-Wistar rats
Source text: One-hundred forty-five adult male Munich-Wistar rats, obtained from a local facility at the Faculty of Medicine, University of São Paulo, weighing between 220 and 250 g, were used in this study. All experimental procedures were approved by the local Research Ethics Committee (Comissão de Ética para Análise de Projetos de Pesquisa do Hospital das Clínicas da Faculdade de Medicina da Universidade de São Paulo, CAPPesq, process n° 0905/09), and carried out following strictly our institutional guidelines and current international standards for manipulation and care of laboratory animals. Body weights and general conditions were assessed daily. Five-sixths renal ablation (Nx) was performed as a single-step procedure under anesthesia with ketamine 50 mg/kg and xylazine 10 mg/kg im. After ventral laparotomy, the right kidney was excised and two or three branches of the left renal artery were ligated, so as to promote infarction of two-thirds of the left kidney. The operation was invariably well tolerated. Sham-operated rats underwent anesthesia and manipulation of the renal pedicles without removal of renal mass. After surgery, rats received enrofloxacin and, upon recovery, had free access to tap water and regular rodent chow containing 0.5 Na and 22% protein (Nuvital Labs, Curitiba, Brazil), and were kept at 23 ± 1 °C and 60 ± 5% relative air humidity, under an artificial 12–12 hour light/dark cycle. Rats were then treated following two different experimental protocols (described later).
In this first protocol, Nx rats were divided into groups: NX + V (N = 8), receiving vehicle; NX + Eple (N = 8), receiving oral (mixed with the chow) Eple, 150 mg/kg/day; and Nx + Ly (N = 8), receiving oral Ly, 20 mg/kg/day. A group of sham-operated rats (S, N = 7) was also studied. Treatments were started 24 h after surgery. Rats were followed during 60 days, with determination of TCP and UalbV on Days 30 and 60. TCP was assessed with an optoelectronic automated device (Visitech Systems, Apex, NC), after rats had been preconditioned so as to remain calm during the procedure. UalbV was measured with a conventional immunodiffusion technique. On Day 60, rats were anesthetized as described before, and blood was collected from the abdominal aorta for determination of serum creatinine, serum K^+, PRA and PAC. The remnant kidney was then perfusion-fixed with Duboscq-Brazil solution after a brief washout with saline to remove blood from renal vessels, and prepared for histomorphometric and immunohistochemical analyses using conventional sequential techniques.
Histomorphometric analysis was performed blindly by two independent observers. The extent of glomerular injury was estimated, in PAS-stained sections, by determining the percentage of glomeruli with sclerotic lesions. The fraction of the renal cortical area occupied by interstitial tissue (%INT) was estimated in 25 consecutive microscopic fields of Masson-stained sections by a point-counting technique, at a final magnification of 200X, under a 144-point grid.
PRA and PAC were determined using commercially available radioimmunoassay kits (Renin Active IRMA and Aldosterone Active RIA, Beckman Coulter, Carlsbad, CA).

Nx rats = assay: Preliminary experiments to determine the doses of Eple and Ly; assay type: in vivo
Description: Preliminary experiments were performed to exclude the possibility that any differences between Eple and Ly, both in monotherapy and as add-ons to L, were simply due to the use of inadequately low doses of either compound. In the first set of experiments, Nx rats received Eple at the recommended dose of 85 mg/kg, and at 150 mg/kg, higher than in most studies reported so far. […] Other Nx rats received Ly at either 12 mg/kg (the recommended dose) or 20 mg/kg. […] Based on these preliminary results, we set the doses of Eple and Ly at 150 mg/kg and 20 mg/kg, respectively.

O=c1[nH]c2ccc(/C=C3\c4ccc(F)cc4COc4cc(F)ccc43)cc2[nH]1 [Ly]
Albumin excretion rate (UalbV) ([1]; 60 days after ablation, Eple 150 mg/kg/day, Ly 20 mg/kg/day oral): significantly lower in Ly-treated than in untreated or Eple-treated rats
Fractional cortical interstitial area ([1]; Day 60): significantly diminished
Left kidney weight corrected for body weight (renal hypertrophy) ([1]; Day 60): renal hypertrophy was significantly attenuated
Plasma renin activity (PRA) ([1]; Day 60): markedly increased PRA
PAC relative to sham (S) ([1]; Day 60, higher than in S): over 30 fold
Plasma K+ levels ([1]; Day 60, versus Nx + V): not aggravated
Tail-cuff pressure (TCP) ([1]; Eple 150 mg/kg/day, Ly 20 mg/kg/day oral): More pronounced attenuation of hypertension
Maximal nontoxic dose, defined by stunting of body growth (Nx rats): 20 mg/kg
Dose-response effect on the parameters studied (Nx rats; Ly 12 mg/kg vs 20 mg/kg): A dose-response effect was observed for most parameters
Body growth (Nx rats; Ly 30 mg/kg): severe growth stunting
